This is an account of results in patent US20120041305A1, “LIGHT-EMITTING DYE FOR INTRAOPERATIVE IMAGING OR SENTINEL LYMPH NODE BIOPSY” (THE UNIVERSITY OF UTAH RESEARCH FOUNDATION, priority 2009, published 2012).

Each structure is given as a SMILES string. Where two headings read alike, the source gives them in different places.

For series [1] the following is noted: cited from earlier work.
The conditions of series [2]: vital blue dye alone, intradermal; cited from earlier work.
The nature of series [3]: Porcine model of lymphatic mapping (intradermal limb injection). Format: in vivo, swine.
The conditions of series [4]: 120 colon cancer patients, intramural bowel injection; cited from earlier work.
For series [5] the following is noted: 1,047 patients, intradermal, 10% fluorescein mixed 1:1 with 1% lidocaine hydrochloride; cited from earlier work.
A short description of series [6]: Human melanoma clinical trial, intraoperative sentinel lymph node fluorescence. Format: in vivo. As to conditions: 0.001%, 1 ml intradermally in 4 locations, 3 out of 5 patients. As to the method:
Patients with cutaneous malignant melanoma with a Breslow thickness of 0.75 mm or greater, or Clark level IV/V involvement, or ulceration were enrolled in the trial. All patients underwent preoperative lymphoscintigraphy with 99m-Technetium labeled sulfur colloid up to 24 hours before the operation. The normally used intraoperative vital blue dye was replaced by fluorescein. The initial starting dose of fluorescein was 0.001% and 1 ml was injected intradermally intraoperatively in 4 locations around the melanoma biopsy site. At this does, sentinel lymph node fluorescence was identified in 3 out of 5 patients (60%). […] The 0.01% dose was used in the subsequent phase II study.

In the case of `CCN(CC)c1ccc(C(=C2C=CC(=[N+](CC)CC)C=C2)c2cc(S(=O)(=O)[O-])ccc2S(=O)(=O)[O-])cc1.[Na+]` [Lymphazurin, isosulfan blue], the “patients with anaphylactoid reaction or life threatening anaphylactic shock” value in series [1] (1% dye, lymphatic mapping and SLNB) is given as 0.1-2%. In addition, in series [1] (human, in vivo), the “chance of a life-threatening anaphylactic event caused by injection” value is reported as 1%. The “cases in which the SLN can be identified” value in series [2] is given as “approximately 87%”. In series [3] (swine forelimb, injected four times), the “forelimb injections leading to a SLN” value is given as “failed to lead to a SLN”.
On to `O=C1OC2(c3ccc(O)cc3Oc3cc(O)ccc32)c2ccccc21` [fluorescein, Fluorescein], for which the adverse reactions entry is given as “none of the 120 patients suffered any adverse reactions” in series [4] and “without adverse reactions” in series [5]. In addition, the “patients with sentinel lymph node fluorescence identified” value in series [6] amounted to 60%. Besides, the “forelimb injections developing visible fluorescence leading to a SLN” value in series [3] (swine forelimb, one of seven injections) was determined as 14%. Moreover, the “hindlimb injections showing lymphatic trunks under the skin leading to the SLN” value in series [3] (swine hindlimb, nine of ten injections) came to 90%.
